Reference: patent US4042695A, “Thiaxanthene derivatives, compositions thereof and methods of treating therewith” (priority 1972, dated 1977)
Structures can show the parent of a compound that is named as a salt. Where two headings read alike, the source gives them in different places.

How the values were obtained:
NMRI male mice = test: Methylphenidate antagonism in mice; assay type: in vivo; conditions: for ED50: Mus musculus, ip
Experimental: 1. As animals were used NMRI male mice weighing 18-25 grams.
3 × 2 or 5 × 2 mice are used for each dose level. Thirty minutes, 1 hour, 2 hours, 3 hours etc. after i.p. injection of test substance, methylphenidate, 60 mg/kg, is injected s.c. At each time interval separate groups of mice were used. After administration of methylphenidate the mice are placed in the observation cages, 2 in each cage, where they remain for 1 hour. The cages are placed on corrugated paper, the corrugations facing upwards. It is examined whether or not the mice have been biting the corrugated paper. […] The peak effect was determined for the test substances and also for a number of known neuroleptics.

[1] = Catalepsy-inducing effect in rats; assay type: in vivo, male Wistar rats; conditions: rat, in vivo, sc
Experimental: (§1) Reference is made to L. Juluo: "On the Interaction between Neuroleptics and Antiparkinson Drugs." Modern Problems of Pharmacopsychiatry, vol. 5, pg, 50-54. The test may be described as follows:
(§2) Five animals are used at each dose level.
(§3) The test compound is injected subcutaneously (s.c.)
(§4) Injection volume is 5 ml of the vehicle/kg b.w.
(§5) Except when otherwise stated saline is used as vehicle.
(§6) The animals are placed in the middle of a vertical wire netting (50 cm/49 cm) 60, 120, 180, 240, 300 and 360 minutes after injection of the test compound.
(§7) The animals are considered cataleptic when they remain immobile during a period of 15 seconds. This cataleptic reaction is designated: + (plus). Untreated animals climb normally up and down the wire netting. The absence of catalepsy is designated: - (minus). The results are expressed as fractions as follows: 0/5, 1/5, 2/5, 3/5, 4/5 and 5/5 in which 0, 1, 2, 3,4 and 5 represent the number of cataleptic animals out of five animals tested.

male Wistar rats = test: Catalepsy-inducing effect in rats; assay type: in vivo; conditions: catalepsy (rats) / methylphenidate antagonism peak effect (mice)
Experimental: as §1, §2, §3, §4, §5, §6, §7

[2] = pure α-isomers of known neuroleptics; cited from earlier work
[3] = system: adult purebred Beagle dogs; test: Apomorphine antagonism in dogs; assay type: in vivo
Text: Especially when testing esters of the compounds of Formula I it has been found advantageous to use the wellrecognized test which is based upon the fact that strong neuroleptics antagonize apomorphine induced vomiting in dogs. The test is described by P. A. J. Janssen, C. J. E. Niemegeers and K. H. L. Schellehaus: "Is it possible to predict the clinical effects of neuroleptic drugs (major tranquillizers) from animal data" ?, Part II, Arzneimittel Forschung, 15, 1196-1206, 1965. In order to evaluate esters of the compounds of Formula I a modified method is described by M. Nymark et al. in Acta pharmacol. et toxicol. 1973, 33, 363-376. The test may be described shortly as follows:
As animals were used adult purebred Beagle dogs of either sex. The threshold-dose of apomorphine hydrochloride for the induction of vomiting in the dogs has been determined to be 0.025 mg/kg intravenously. After this dose vomiting occurs within a few minutes of the injection. Four dogs were used for each dose level of the drug, which was injected subcutaneously at the back of the neck. At different times after the drug administration the dogs were then challenged with apomorphine according to an "up-and-down" schedule using the dose-range 0.025- 0.400 mg/kg intravenously geometrically spaced. […] In this way it was possible to estimate at which level of apomorphine the dogs were protected at a given time. The dogs were fed half an hour before testing to ensure an easy vomiting.

rats = test: Antagonism of amphetamine-induced stereotyped behaviour in rats; assay type: in vivo
Experimental: The modification used by us was as follows:
The animals were then placed in individual cages. […] The absence of stereotypy was interpreted as a drug effect. ED50 values for protection against stereotypy were determined. All compounds were tested at a minimum of three dose levels using 10 rats per dose, and the observer was kept unaware of the identity of the groups until after the experiment.

[4] = mice, i.p., 24 h after injection, read-out: Methylphenidate antagonism ED50, 24 h
[5] = mice, i.p., peak effect, methylphenidate 60 mg/kg s.c., read-out: Methylphenidate antagonism, peak effect ED50
[6] = rats, s.c., dose producing catalepsy in 50% of the animals, read-out: Catalepsy ED50 max.
[7] = read-out: Methylphenidate antagonism, peak effect ED50

Row | SMILES | ED50 (NMRI male mice; [4]) [mg/kg] | ED50 (NMRI male mice; [5]) [mg/kg] | ED50 [1, 6] [mg/kg] | Ratio Cat./Meth (catalepsy/methylphenidate antagonism) (male Wistar rats) | further results
1 | OCCN1CCN(CCCC2c3ccc(F)cc3Sc3ccc(C(F)(F)F)cc32)CC1 (stereo not drawn) [Substance 1] | 1.66 | 0.04 |  |  | ED50 [1]: 0.9 mg/kg
2 | CN1CCN(CCCC2c3ccc(F)cc3Sc3ccc(C(F)(F)F)cc32)CC1 (stereo not drawn) [Substance 2, 2-trifluoromethyl-6-fluoro-9-(3-(4-methyl-1-piperazinyl)propyl)thiaxanthene] | > 10 | 0.3 | 3.1 | 10 | duration of peak effect (NMRI male mice; mice, i.p.): > 5 h
3 | OCCN1CCN(CCCC2c3ccc(F)cc3Sc3ccc(Cl)cc32)CC1 (stereo not drawn) [Substance 3, 2-chloro-6-fluoro-9-(3-(4-(2-hydroxyethyl)-1-piperazinyl)propyl)-thiaxanthene] | 7.1 | 0.8 | 2.7 | 3.4 | duration of peak effect (NMRI male mice; mice, i.p.): > 5 h
4 | CN1CCN(CCCC2c3ccc(F)cc3Sc3ccc(S(=O)(=O)N(C)C)cc32)CC1 (stereo not drawn) [Substance 4, 2-dimethylsulfamoyl-6-fluoro-9-(3-(4-methylpiperazine-1-yl)propyl)-thiaxanthene] | > 5 | 1 | 3.1 | 3.1 | 
5 | CN1CCN(CCC=C2c3ccc(F)cc3Sc3ccc(S(=O)(=O)N(C)C)cc32)CC1 [Substance 5, 2-dimethylsulfamoyl-6-fluoro-9-(3-(4-methylpiperazine-1-yl)propylidene)-thiaxanthene] | > 10 | 0.4 | 1 | 2.5 | duration of peak effect (NMRI male mice; mice, i.p.): > 5 h
6 | OCCN1CCN(CCC=C2c3ccc(F)cc3Sc3ccc(C(F)(F)F)cc32)CC1 [Substance 6] | 0.24 | 0.05 | 0.12 |  | 
7 | OCCN1CCN(CCC=C2c3ccc(F)cc3Sc3ccc(Cl)cc32)CC1 [Substance 7] | > 10 | 0.4 | 2 | 5 | duration of peak effect (NMRI male mice; mice, i.p.): > 5 h
8 | OCCN1CCN(CCCC2c3ccc(Cl)cc3Sc3ccc(C(F)(F)F)cc32)CC1 (stereo not drawn) [Substance 8, reference compound] |  | 4 | > 20 | > 5 | 
9 | OCCN1CCN(CCCC2c3cc(C(F)(F)F)ccc3Sc3c(Cl)cccc32)CC1 (stereo not drawn) [Substance 9, reference compound] |  | 14 | > 20 | 1.5 | 
10 | OCCN1CCN(CCCC2c3cc(C(F)(F)F)ccc3Sc3c2cccc3C(F)(F)F)CC1 (stereo not drawn) [Substance 10, reference compound] |  | > 10 | > 20 |  | 
11 | OCCN1CCN(CCCC2c3ccc(C(F)(F)F)cc3Sc3ccc(C(F)(F)F)cc32)CC1 (stereo not drawn) [Substance 11, reference compound] |  | > 10 | > 20 |  | 
12 | CN(C)S(=O)(=O)c1ccc2c(c1)C(=CCCN1CCC(CCO)CC1)c1ccc(F)cc1S2 [Substance 12, 2-Dimethylsulfamoyl-6-fluoro-9-(3-(4-(2-hydroxyethyl)-1-piperidyl)propylidene)-thiaxanthene] | > 10 | 0.87 | 0.69 | 0.8 | 
13 | OCCC1CCN(CCC=C2c3ccc(F)cc3Sc3ccc(C(F)(F)F)cc32)CC1 [Substance 13] |  |  | 0.05 |  | ED50 (NMRI male mice; 24 h, read-out: Methylphenidate antagonism ED50, 24 h): 0.03 mg/kg; ED50 (NMRI male mice; [7]): 0.03 mg/kg
14 | OCCC1CCN(CCCC2c3ccc(F)cc3Sc3ccc(C(F)(F)F)cc32)CC1 (stereo not drawn) [Substance 14, 2-Trifluoromethyl-6-fluoro-9-(3-(4-(2-hydroxyethyl)-1-piperidyl)propyl)-thiaxanthene] | 3.6 | 0.25 | 0.21 | 0.8 | 
15 | OCCC1CCN(CCC=C2c3ccc(F)cc3Sc3ccc(Cl)cc32)CC1 [Substance 15, 2-chloro-6-fluoro-9-(3-(4-(2-hydroxyethyl)piperidin-1-yl)propylidene)thiaxanthene] | 0.27 | 0.08 | 0.07 | 0.9 | 
16 | CN1CCN(CC/C=C2/c3ccccc3Sc3ccc(S(=O)(=O)N(C)C)cc32)CC1 [Thiothixene, reference compound] | > 40 | 0.4 |  | 0.14 | activity of the α-isomer relative to the β-isomer (in words) [2]: most active isomers; ED50 [1]: 0.06 mg/kg
17 | CN1CCc2cccc3c2[C@H]1Cc1ccc(O)c(O)c1-3 [apomorphine hydrochloride, reference compound] |  |  |  |  | minimal effective dose ([3]; Canis lupus familiaris, iv, intravenously, read-out: threshold-dose for the induction of vomiting): 0.025 mg/kg
18 | CCCCCCCCCCCCCCCCCCCCCC(=O)OCCC1CCN(CCC=C2c3ccc(F)cc3Sc3ccc(C(F)(F)F)cc32)CC1 [behenic acid ester of Lu 12-331, behenic acid ester of the alpha-isomer of 2-trifluoromethyl-6-fluoro-9-(3-(4-(2-hydroxyethyl)-1-piperidyl)propylidene)-thiaxanthene] |  |  |  |  | sedation compared with the palmitic acid ester ([3]; 1 mg/kg subcutaneously as Lu 12-331, first week): less sedation in the first week; duration of maximal protection ([3]; 1.6 mg/kg s.c. of ester): 15 days; time after which the effect had disappeared ([3]; 1.6 mg/kg s.c. of ester): 26 days; maximal protection against apomorphine ([3]; 1.6 mg/kg s.c. of ester ~ 1 mg/kg of Lu 12-331): 16 × threshold dose of apomorphine; protection against apomorphine 21 days after the injection ([3]; 1.6 mg/kg s.c. of ester, 21 days): ~ 12 × threshold dose; sedation ([3]; 1.6 mg/kg s.c. of ester, at any time): No sedation; duration of protection against amphetamine-induced stereotypies (rats; 5 mg/kg s.c.): 21 days; sedation (rats; 5 mg/kg s.c.): hardly any sedation
19 | CN(C)CCCN1c2ccccc2Sc2ccc(Cl)cc21 [chlorpromazine, reference compound] |  |  |  | 1.0 | ED50 (NMRI male mice; [7]): 4 mg/kg; ED50 [1]: 4 mg/kg
20 | CCCCCCCCCCCCCCCC(=O)OCCC1CCN(CCC=C2c3ccc(F)cc3Sc3ccc(C(F)(F)F)cc32)CC1 [palmitic acid ester of Lu 12-331, palmitic acid ester of the alpha-isomer of 2-trifluoromethyl-6-fluoro-9-(3-(4-(2-hydroxyethyl)-1-piperidyl)propylidene)-thiaxanthene] |  |  |  |  | sedation (rats; 2-5 mg/kg s.c.): pronounced sedation lasting for several days
21 | CCCCCCCCCC(=O)OCCN1CCN(CC/C=C2/c3ccccc3Sc3ccc(C(F)(F)F)cc32)CC1 [reference compound] |  |  |  |  | day after the injection on which the effect had disappeared ([3]; 2 mg/kg s.c.): 11 days; degree of protection against apomorphine ([3]; 2 mg/kg s.c.): 3 × threshold dose
22 | OCCN1CCN(CC/C=C2/c3ccccc3Sc3ccc(Cl)cc32)CC1 [α-Clopenthixol, reference compound] | > 40 | 0.7 |  | 0.7 | activity of the α-isomer relative to the β-isomer (in words) [2]: most active isomers; duration of peak effect (NMRI male mice; mice, i.p.): 5 h; ED50 [1]: 0.45 mg/kg
23 | OCCN1CCN(CC/C=C2/c3ccccc3Sc3ccc(C(F)(F)F)cc32)CC1 [α-Flupenthixol, reference compound] | 17 | 0.07 |  | 1.74 | activity of the α-isomer relative to the β-isomer (in words) [2]: most active isomers; duration of peak effect (NMRI male mice; mice, i.p.): 6 h; ED50 [1]: 0.12 mg/kg
